The results in this text go back to ChEMBL document CHEMBL4428104, “Synthesis and antibacterial evaluation of hamacanthin B analogues” (2016).

Type in all cases: functional
In experiment [1] the test system is Staphylococcus aureus. The experiment in a line: Antibacterial activity against methicillin resistant Staphylococcus aureus 3089 after 24 hrs by two fold serial dilution method. To be noted: Staphylococcus aureus, 3089, 24 h.
The subject of the next experiment is Enterococcus faecalis. Description: Antibacterial activity against multidrug resistant Enterococcus faecalis 5210 after 24 hrs by two fold serial dilution method.
The subject of a further experiment is Escherichia coli. The experiment in a line: Antibacterial activity against multidrug resistant Escherichia coli 1137 after 24 hrs by two fold serial dilution method.
The subject of experiment [2] is Staphylococcus aureus. Description: Antibacterial activity against Staphylococcus aureus SG 511 after 24 hrs by two fold serial dilution method. Conditions: SG 511, 24 h.
[3] abbreviates: Enterococcus faecalis, 5210, 24 h.

In brackets after ≈: the same amount, converted by molar mass. Bounds are passed on as bounds.

For orientation: MIC means the least concentration at which growth counts as inhibited. Consider `O=c1[nH]cc(-c2c[nH]c3cc(Br)ccc23)nc1-c1c[nH]c2cc(Br)ccc12`, for which the MIC in the experiment on Staphylococcus aureus [1] was 20 µg/mL (≈ 41.3 µM); in the experiment with Enterococcus faecalis (setting [3]), 20 µg/mL (≈ 41.3 µM); in the experiment with Escherichia coli (Escherichia coli, 1137, 24 h), over 40 µg/mL; with Staphylococcus aureus [2] it was 10 µg/mL (≈ 20.7 µM).
As for `O=C1NC[C@H](c2c[nH]c3cc(Br)ccc23)N[C@@H]1c1c[nH]c2cc(Br)ccc12`, the MIC in the experiment with Staphylococcus aureus [1] is 40 µg/mL (≈ 81.9 µM); with Enterococcus faecalis (setting [3]), over 40 µg/mL; in the experiment with Escherichia coli (Escherichia coli, 1137, 24 h) it was over 40 µg/mL; with Staphylococcus aureus [2], 20 µg/mL (≈ 41 µM).
Turning to `CCn1cc(C(=O)O)c(=O)c2cc(F)c(N3CCNCC3)cc21` [NORFLOXACIN], the MIC against Staphylococcus aureus [1] was over 40 µg/mL; against Escherichia coli (Escherichia coli, 1137, 24 h), 1.25 µg/mL (≈ 3.91 µM).
Take `CN[C@H](CC(C)C)C(=O)N[C@H]1C(=O)N[C@@H](CC(N)=O)C(=O)N[C@H]2C(=O)N[C@H]3C(=O)N[C@H](C(=O)N[C@H](C(=O)O)c4cc(O)cc(O)c4-c4cc3ccc4O)[C@H](O)c3ccc(c(Cl)c3)Oc3cc2cc(c3O[C@@H]2O[C@H](CO)[C@@H](O)[C@H](O)[C@H]2O[C@H]2C[C@](C)(N)[C@H](O)[C@H](C)O2)Oc2ccc(cc2Cl)[C@H]1O` [VANCOMYCIN]: the MIC in the experiment with Staphylococcus aureus [1] came to 1.25 µg/mL (≈ 0.863 µM); in the experiment with Enterococcus faecalis (setting [3]), 2.5 µg/mL (≈ 1.73 µM).
As to GENTAMICIN, the MIC in the experiment on Enterococcus faecalis and with Escherichia coli was over 40 µg/mL throughout.
For `O=C(NCC(=O)c1c[nH]c2cc(Br)ccc12)C(=O)c1c[nH]c2cc(Br)ccc12`, the MIC against Staphylococcus aureus [1] was over 40 µg/mL; against Enterococcus faecalis (setting [3]), over 40 µg/mL; in the experiment on Escherichia coli (Escherichia coli, 1137, 24 h), over 40 µg/mL; in the experiment with Staphylococcus aureus [2], over 40 µg/mL.
Turning to `O=C1NC[C@@H](c2c[nH]c3cc(Br)ccc23)N[C@H]1c1c[nH]c2cc(Br)ccc12` [CIS-3,4-DIHYDROHAMACANTHIN B], the MIC was 20 µg/mL (≈ 41 µM) with Staphylococcus aureus [1]; 40 µg/mL (≈ 81.9 µM) against Enterococcus faecalis (setting [3]); over 40 µg/mL in the experiment with Escherichia coli (Escherichia coli, 1137, 24 h); 10 µg/mL (≈ 20.5 µM) against Staphylococcus aureus [2].
On the same counts, the results for `O=c1[nH]cc(-c2c[nH]c3ccccc23)nc1-c1c[nH]c2cc(Br)ccc12` are 20 µg/mL (≈ 49.4 µM), over 40 µg/mL, over 40 µg/mL and 2.5 µg/mL (≈ 6.17 µM).
On the same counts, the results for `O=C1NC[C@H](c2c[nH]c3ccccc23)N[C@@H]1c1c[nH]c2cc(Br)ccc12` are over 40 µg/mL, over 40 µg/mL, over 40 µg/mL and 20 µg/mL (≈ 48.9 µM).
In the case of `O=C(NCC(=O)c1c[nH]c2ccccc12)C(=O)c1c[nH]c2cc(Br)ccc12`, the MIC with Staphylococcus aureus [1] was over 40 µg/mL; in the experiment on Enterococcus faecalis (setting [3]), over 40 µg/mL; in the experiment with Escherichia coli (Escherichia coli, 1137, 24 h) it was over 40 µg/mL; in the experiment on Staphylococcus aureus [2] it was over 40 µg/mL.
For `O=C1NC[C@@H](c2c[nH]c3ccccc23)N[C@H]1c1c[nH]c2cc(Br)ccc12`, the MIC with Staphylococcus aureus [1] was over 40 µg/mL; against Enterococcus faecalis (setting [3]), over 40 µg/mL; against Escherichia coli (Escherichia coli, 1137, 24 h) it was over 40 µg/mL; against Staphylococcus aureus [2], 40 µg/mL (≈ 97.7 µM).
In the experiment on Staphylococcus aureus [2], `CN(C)[C@@H]1C(O)=C(C(N)=O)C(=O)[C@@]2(O)C(O)=C3C(=O)c4c(O)cccc4[C@@](C)(O)[C@H]3C[C@@H]12` [TETRACYCLINE] registered an MIC of 0.16 µg/mL (≈ 0.36 µM).
